Drawing on patent publication US20240417405A1, “Substituted Spiro Derivatives” (Janssen Pharmaceutica NV, priority 2021, published 2024), this text covers IC50 for 24 compounds.

Structures are written as SMILES. Like-named read-outs stand apart in the source and are kept apart here. Bounds are passed on as bounds.

Test [1] addresses T1, menin/MLL (terbium chelate-labeled menin, FITC-MBM1 peptide) (Homo sapiens, UniProt O00255, T541A).
T1 construct: Menin (a.a 1-610-6xhis tag)
T1 sequence (O00255 with tags, fused parts or gaps T541A): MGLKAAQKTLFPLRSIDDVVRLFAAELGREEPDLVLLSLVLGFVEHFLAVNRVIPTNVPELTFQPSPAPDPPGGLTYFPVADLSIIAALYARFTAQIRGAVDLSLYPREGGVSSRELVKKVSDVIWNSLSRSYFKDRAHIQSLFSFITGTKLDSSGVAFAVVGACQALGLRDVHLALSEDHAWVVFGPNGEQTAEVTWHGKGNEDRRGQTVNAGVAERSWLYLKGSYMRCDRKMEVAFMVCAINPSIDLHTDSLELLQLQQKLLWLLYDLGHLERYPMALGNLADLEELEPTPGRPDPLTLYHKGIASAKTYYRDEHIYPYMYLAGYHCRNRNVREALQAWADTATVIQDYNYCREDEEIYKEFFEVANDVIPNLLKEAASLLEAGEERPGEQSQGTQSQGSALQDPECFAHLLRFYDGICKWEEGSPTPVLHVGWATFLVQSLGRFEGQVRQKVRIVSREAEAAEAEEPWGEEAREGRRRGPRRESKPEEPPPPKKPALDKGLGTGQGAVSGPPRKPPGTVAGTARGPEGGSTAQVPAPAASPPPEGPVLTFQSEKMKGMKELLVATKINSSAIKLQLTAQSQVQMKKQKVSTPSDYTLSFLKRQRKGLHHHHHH
Nature of the test: Menin/MLL homogenous time-resolved fluorescence (HTRF) assay. Type of test: binding. As to conditions: 30 min incubation. The gist of the method: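 Percent inhibition, calculated from the 520/490 nm HTRF ratio against high and low controls, was fitted for IC50 with a 0.1 nM detection limit. Reactions held 200 pM Tb-menin and 75 nM FITC-MBM1 in pH 7.5 Tris buffer with 0.5% DMSO.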

For another test, the system named is MOLM14 cells. Nature of the test: Proliferation assay, spheroid-like growth, MOLM14 (MLL-AF9 rearranged). The class given is cell-based, human. As to conditions: 8 days, confluence as measure of spheroid size, read-out: spheroid assay_OneTime MOLM14 IC50. The procedure, abridged:
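Seed cells at linear-growth densities in low-attachment wells; add test compound at several concentrations, normalized to 0.3% DMSO; incubate 8 days at 37 °C; image spheroids and measure confluence; calculate absolute IC50 against DMSO and reference-compound controls.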

The subject of a further test is KO-52 cells. Nature of the test: Proliferation assay, spheroid-like growth, KO-52 (MLL wildtype control cell line). Type of test: cell-based, human. As to conditions: KO-52 control cells, 8 days, confluence as measure of spheroid size, read-out: spheroid assay_OneTime KO-52 IC50. Here is the method: The anti-proliferative effect of menin/MLL protein/protein interaction inhibitor test compounds was assessed in human leukemia cell lines. The cell line MOLM14 harbors a MLL translocation and expresses the MLL fusion proteins MLL-AF9, respectively, as well as the wildtype protein from the second allele. […] KO-52 was used as a control cell line containing two MLL (KMT2A) wildtype alleles in order to exclude compounds that display general cytotoxic effects.
MOLM14 cells were cultured in RPMI-1640 (Sigma Aldrich) supplemented with 10% heat-inactivated fetal bovine serum (HyClone), 2 mM L-glutamine (Sigma Aldrich) and 50 μg/ml gentamycin (Gibco). KO-52 cell lines were propagated in alpha-MEM (Sigma Aldrich) supplemented with 20% heat-inactivated fetal bovine serum (HyClone), 2 mM L-glutamine (Sigma Aldrich) and 50 μg/ml gentamycin (Gibco).
In order to assess the anti-proliferative effects, 200 MOLM14 cells, or 300 KO-52 cells were seeded in 200 μl media per well in 96-well round bottom, ultra-low attachment plates (Costar, catalogue number 7007). Cell seeding numbers were chosen based on growth curves to ensure linear growth throughout the experiment. Test compounds were added at different concentrations and the DMSO content was normalized to 0.3%. Cells were incubated for 8 days at 37° C. and 5% CO2. Spheroid like growth was measured in real-time by live-cell imaging (IncuCyteZOOM, Essenbio, 4× objective) acquiring images at day 8. Confluence (%) as a measure of spheroid size was determined using an integrated analysis tool.
In order to determine the effect of the test compounds over time, the confluence in each well as a measure of spheroid size, was calculated. Confluence of the highest dose of a reference compound was used as baseline for the LC (Low control) and the confluence of DMSO treated cells was used as 0% cytotoxicity (High Control, HC).
Absolute IC50 values were calculated as percent change in confluence as follows:
LC=Low Control: cells treated with e.g. 1 μM of the cytotoxic agent staurosporin, or e.g. cells treated with a high concentration of an alternative reference compound
GraphPad Prism (version 7.00) was used to calculate the IC50. Dose-response equation was used for the plot of % Effect vs Log 10 compound concentration with a variable slope and fixing the maximum to 100% and the minimum to 0%.

The term IC50 denotes the midpoint of a concentration-inhibition curve.

For `CC(C)[C@H]([C@H]1C[C@@H](N2CC(O)C3(CC3)C2)C1)N1CC2(CCN(c3ncnnc3Oc3ccc(F)cc3-c3cncnc3C3CC3)C2)C1` (mixture of isomers) [Compound 42], the IC50 in test [1] stood at 0.1 nM; with MOLM14 cells (Homo sapiens, MOLM-14, 192 h), 4 nM; with KO-52 cells (Homo sapiens, 192 h) it was 2120 nM.
With `CC(C)[C@H]([C@H]1C[C@H](N2CC(O)C3(CC3)C2)C1)N1CC2(CCN(c3ncnnc3Oc3ccc(F)cc3-c3cncnc3C3CC3)C2)C1` (mixture of isomers) [Compound 43], the IC50 turned out to be 0.1 nM in test [1]; 42 nM with MOLM14 cells (Homo sapiens, MOLM-14, 192 h); 9960 nM in the test on KO-52 cells (Homo sapiens, 192 h).
As to `CC(C)[C@H]([C@H]1C[C@H](N2CC(O)C3(CCC3)C2)C1)N1CC2(CCN(c3ncnnc3Oc3ccc(F)cc3-c3cncnc3C3CC3)C2)C1` (mixture of isomers) [Compound 213], the IC50 in test [1] was 0.1 nM; in the test with MOLM14 cells (Homo sapiens, MOLM-14, 192 h), 41 nM; with KO-52 cells (Homo sapiens, 192 h), 3910 nM.
For `COC1(C)CCN([C@H]2C[C@H]([C@H](C(C)C)N3CC4(CCN(c5ncnnc5Oc5ccc(F)cc5-c5nnccc5C5CC5)C4)C3)C2)C1` (mixture of isomers) [Compound 276] the same measures were 0.8 nM, 82 nM and over 15000 nM.
On to `CC(C)C([C@H]1C[C@@H](N)C1)N1CC2(CCN(c3ncnnc3Oc3ccc(F)cc3-c3cncnc3C3CC3)C2)C1` (single isomer, unassigned) [Compound 1a], for which the IC50 in test [1] is 0.1 nM; in the test with MOLM14 cells, 20 nM; with KO-52 cells (Homo sapiens, 192 h), over 15000 nM.
On to `CC(C)C([C@H]1C[C@@H](N)C1)N1CC2(CCN(c3ncnnc3Oc3ccc(F)cc3-c3cncnc3C3CC3)C2)C1` (single isomer, unassigned) [Compound 1b], for which the figures for the half-inhibitory concentration (IC50) (in test [1]; in the test with MOLM14 cells; in the test on KO-52 cells) were 0.4 nM, 200 nM and over 15000 nM, respectively.
Turning to `CC(=O)N[C@H]1C[C@@H]([C@@H](C(C)C)N2CC3(CCN(c4ncnnc4Oc4ccc(F)cc4-c4cncnc4C4CC4)C3)C2)C1` (single isomer, unassigned) [Compound 2a], the concentration for half-maximal inhibition (IC50) in test [1] was 0.2 nM; in the test with MOLM14 cells (Homo sapiens, MOLM-14, 192 h), 22 nM; in the test with KO-52 cells (Homo sapiens, 192 h) it was 7000 nM.
Take `CC(=O)NC1CC(C(C(C)C)N2CC3(CCN(c4ncnnc4Oc4ccc(F)cc4-c4cncnc4C4CC4)C3)C2)C1` (single isomer, unassigned) [Compound 2b]: the IC50 in test [1] was 16.6 nM; with MOLM14 cells, 1310 nM; with KO-52 cells, over 15000 nM.
For `CC(C)[C@H](C1CCN(CC2(O)CC2)CC1)N1CC2(CCN(c3ncnnc3Oc3ccc(F)cc3-c3cncnc3C3CC3)C2)C1` (single isomer, unassigned) [Compound 4], the IC50 in test [1] came out at 0.3 nM; in the test on MOLM14 cells (Homo sapiens, MOLM-14, 192 h), 66 nM; in the test with KO-52 cells (Homo sapiens, 192 h), 7730 nM.
For `CC(C)[C@H]([C@H]1C[C@H](N2CCC(C)(C(=O)N(C)C)CC2)C1)N1CC2(CCN(c3ncnnc3Oc3ccc(F)cc3-c3cncnc3C3CC3)C2)C1` (single isomer, unassigned) [Compound 63], the IC50 with MOLM14 cells (Homo sapiens, MOLM-14, 192 h) is 57 nM; in the test with KO-52 cells (Homo sapiens, 192 h), over 15000 nM.
On the same counts, the results for `CC(C)[C@H]([C@H]1C[C@@H](NC(=O)C2CC2)C1)N1CC2(CCN(c3ncnnc3Oc3ccc(F)cc3-c3cccc(=O)n3C3CC3)C2)C1` (single isomer, unassigned) [Compound 190] are 76 nM and 14800 nM.
On to `CC(C)[C@@H]([C@H]1C[C@@H](NC(=O)C2CC2)C1)N1CC2(CCN(c3ncnnc3Oc3ccc(F)cc3-c3cccc(=O)n3C3CC3)C2)C1` (single isomer, unassigned) [Compound 191], for which the concentration for half-maximal inhibition (IC50) in the test with MOLM14 cells (Homo sapiens, MOLM-14, 192 h) is over 940 nM; with KO-52 cells (Homo sapiens, 192 h) it was over 15000 nM.
For the compound `CC(C)[C@H]([C@H]1C[C@@H](N2CC[C@](C)(O)C2)C1)N1CC2(CCN(c3ncnnc3Oc3ccc(F)cc3-c3cncnc3C3CC3)C2)C1` [Compound 12], the concentration for half-maximal inhibition (IC50) is 2 nM in the test with MOLM14 cells (Homo sapiens, MOLM-14, 192 h) and over 15000 nM in the test with KO-52 cells (Homo sapiens, 192 h).
Take `CC(C)C([C@H]1C[C@H](N2CCC(C)(O)CC2)C1)N1CC2(CCN(c3ncnnc3Oc3ccc(F)cc3-c3cncnc3C3CC3)C2)C1` (stereo partly drawn) [Compound 130]: the IC50 was 120 nM in the test with MOLM14 cells (Homo sapiens, MOLM-14, 192 h) and over 15000 nM in the test on KO-52 cells (Homo sapiens, 192 h).
As to `CC(C)C([C@H]1C[C@H](NCC(C)(C)O)C1)N1CC2(CCN(c3ncnnc3Oc3ccc(F)cc3-c3cncnc3C3CC3)C2)C1` (stereo partly drawn) [Compound 134], the IC50 with MOLM14 cells (Homo sapiens, MOLM-14, 192 h) turned out to be 130 nM; in the test on KO-52 cells (Homo sapiens, 192 h) it was 13200 nM.
As for `CC(C)C([C@H]1C[C@H](N2CC3(COC3)C2)C1)N1CC2(CCN(c3ncnnc3Oc3ccc(F)cc3-c3ncc(C#N)cc3C3CC3)C2)C1` (stereo partly drawn) [Compound 141], the IC50 in the test on MOLM14 cells (Homo sapiens, MOLM-14, 192 h) turned out to be 260 nM; in the test with KO-52 cells (Homo sapiens, 192 h) it was 12400 nM.
On the same counts, the results for `CC(C)C([C@H]1C[C@@H](N2C[C@H]3COC[C@H]3C2)C1)N1CC2(CCN(c3ncnnc3Oc3ccc(F)cc3-c3cnc(C#N)nc3C3CC3)C2)C1` (stereo partly drawn) [Compound 166] are 3 nM and 1530 nM.
In the case of `Fc1ccc(Oc2nncnc2N2CCC3(C2)CN(C(C2CCN(CC4COC4)CC2)C24CC(C2)C4)C3)c(-c2nnccc2C2CC2)c1` (stereo not drawn) [Compound 340], the IC50 in the test on MOLM14 cells (Homo sapiens, MOLM-14, 192 h) was 170 nM; with KO-52 cells (Homo sapiens, 192 h), 11400 nM.
For `Cc1ncc(-c2cc(F)ccc2Oc2nncnc2N2CCC3(C2)CN([C@@H](C(C)C)[C@H]2C[C@@H](N4C[C@H]5COC[C@H]5C4)C2)C3)c(C2CC2)n1` [Compound 396], the IC50 in test [1] is 0.059 nM; in the test with MOLM14 cells (Homo sapiens, MOLM-14, 192 h) it was under 1.8 nM.
On the same counts, the results for `CO[C@H]1CCN([C@H]2C[C@@H]([C@H](C(C)C)N3CC4(CCN(c5ncnnc5Oc5ccc(F)cc5-c5nnc(C)cc5C5CC5)C4)C3)C2)C1` [Compound 398] are 0.144 nM and 6.4 nM.
Turning to `Cc1cc(C2CC2)c(-c2cc(F)ccc2Oc2nncnc2N2CCC3(C2)CN([C@@H](C(C)C)[C@H]2C[C@H](N4C[C@@H]5[C@H](C4)[C@H]5C(=O)N(C)C)C2)C3)nn1` [Compound 401], the IC50 in test [1] amounted to 0.52 nM; in the test on MOLM14 cells (Homo sapiens, MOLM-14, 192 h) it was 260 nM.
With `CO[C@H]1[C@@H]2CN([C@H]3C[C@@H]([C@H](C(C)C)N4CC5(CCN(c6ncnnc6Oc6ccc(F)cc6-c6nnc(C)cc6C6CC6)C5)C4)C3)C[C@@H]21` [Compound 402], the IC50 was found to be 0.17 nM in test [1] and 9 nM with MOLM14 cells (Homo sapiens, MOLM-14, 192 h).
With `CO[C@H]1[C@@H]2CN([C@H]3C[C@H]([C@H](C(C)C)N4CC5(CCN(c6ncnnc6Oc6ccc(F)cc6-c6nnc(C)cc6C6CC6)C5)C4)C3)C[C@@H]21` [Compound 403], the concentration for half-maximal inhibition (IC50) was found to be 0.59 nM in test [1] and 230 nM in the test with MOLM14 cells (Homo sapiens, MOLM-14, 192 h).
Take `CC(=O)Nc1cc(NC2CC(C(C(C)C)N3CC4(CCN(c5ncnnc5Oc5ccc(F)cc5-c5cncnc5C5CC5)C4)C3)C2)ccn1` (stereo not drawn) [Compound 407]: the IC50 was 0.11 nM in test [1] and under 1.8 nM with MOLM14 cells (Homo sapiens, MOLM-14, 192 h).
